Experimental data as given in patent US20230201311A1, “COMPOSITIONS AND METHODS FOR TREATING NON-ALCOHOLIC STEATOHEPATITIS (NASH)” (SHANGHAI BENEMAE PHARMACEUTICAL CORPORATION, priority 2020, published 2023).

Experiments:
[1] = mouse, in vivo, sc
Description: Mice (n=4 per time point) were randomized into different groups by body weight on the day before the study. Mice were fasted overnight before dosing. […] Samples were collected at the time intervals shown in Table 1, where about 60 μL blood was taken into EDTA-coated tubes (pre-added 2.5 μL DPP-4 inhibitor, and 2.5 μL protease inhibitor). The plasma was separated on a pre-cooled centrifuge and then immediately frozen in dry ice. The samples were stored at −80° C. till assay.

[2] = test system: HFD-NASH mice; assay: Therapeutic effects of Beinaglutide on HFD induced NASH model in ob/ob mice (Example 2, 11 weeks); format: in vivo; settings: for percentage of body weight changes from baselines: Day 78 (11 weeks); for plasma ALT level: FIG. 16B
Source text: Animal grouping and experiment process: A total of 70 male ob/ob mice (6 weeks old) were fed with a chow diet after transferred to SPF animal room and acclimatized for 1 week. The feed was then switched to HFD diet (D09100310, fat (40 Kcal %), fructose (20 Kcal %) and cholesterol (2%), also named GAN (Gubra Amylin NASH) diet, Research Diets, Inc., USA) and maintained for 6 weeks. Inversed artificial circadian rhythms lighting were adopted during this period and subsequent drug administration period.
Plasma samples were collected for the measurement of ALT and mouse body weight data were measured at week 6. Animals were then randomly allocated into 4 groups (12 animals/group) based on body weight (the first weight index) and plasma ALT level (the second weight index). Drug and vehicle administration were started from week 7 since modeling start and mice were maintained on HFD diet with inversed artificial circadian rhythms lighting.
Data recording: Appearance and behavior of each mouse were observed after administration. All abnormal appearance, status and behaviors were recorded. In the period of HFD model development, body weight was measured once weekly from week 1 to week 6. Then body weight and food consumption were measured twice weekly since compound dosing start (week 7). The food consumption was calculated by the diet consumption of each cage of mice within 8 hours per day, the average food consumption per group was calculated. […]
Blood and tissue sampling: At the end of the in vivo study, all mice were euthanized via carbon dioxide (CO2) asphyxia after 11.5 hours fasting. Blood samples were collected via cardiac puncturing, one aliquot of each blood sample was collected into a tube without anti-coagulant for serum preparation. Serum was obtained by centrifugation at 3000 rpm for 10 minutes at 4° C. and then stored in a −80° C. refrigerator before being used for the measurement of ALT, AST, total bilirubin (TBIL), TC, TG and LDL-c. The other aliquot of each blood sample was collected into a tube with EDTA-K anti-coagulant for plasma preparation. Plasma samples were obtained by centrifugation at 4000×g for 10 minutes at 4° C. and then stored in a −80° C. refrigerator.
After the animal was sacrificed, the body weight and liver weight were measured, and four lobes of each liver were collected. The right middle lobe of each liver was collected, cut into two sections, put into two SNAP frozen tubes and kept at −80° C. before testing. One section of the liver tissue was used for mRNA expression analysis of Tgfb1, Col1a1 and Acta2; and the other section of the liver tissue was used for the measurement of TC and TG contents. The left middle lobe of each liver was collected, store at −80° C. for future use. The left lateral lobe of each liver was collected, cut into two sections and put into two tubes. One section was used for optimal cutting temperature (OCT) embedding, frozen sectioning and oil red staining for steatosis examination, and for calculation of percentage of fat deposition area. The other section was fixed with 10% neutral formalin solution and processed into formalin fixed paraffin-embedded (FFPE) block for H&E, Sirius red or α-SMA IHC staining respectively. The right lateral lobe of each liver was collected and fixed in 10% neutral formalin for future use.
Serum biochemistry analysis: The serum samples were taken out from −80° C. refrigerator and restored to room temperature. 150 μl of each serum sample was pipetted out for the analysis of ALT, AST, TBIL, TC, TG and LDL-c with automatic biochemical analyzer (HITACHI 7180).
qPCR analysis: The right middle lobe of each liver tissue was cut into small pieces, and 30-50 mg of liver tissue was weighed and transferred into a Lysing Matrix D tube, then 1 ml of TRIzol Reagent was added into Lysing Matrix D containing tissue immediately. […]

[3] = test system: HFD-NASH mice; assay: Pharmacodynamics study of Beinaglutide in HFD-NASH mice (Example 1, 4 weeks); format: in vivo
Description: HFD-NASH model development Animals were group-housed in standard cages at 22° C. in a 12:12-h light-dark cycle. Ob/ob mice were allowed ad libitum access to a diet enriched in fat (40% kcal), fructose (20% by weight), and cholesterol (2% by weight) (Research Diets, Inc., #D09100310). Over 9 weeks feeding, the mice (HFD-NASH) were developed with nonalcoholic fatty liver disease (steatosis, steatohepatitis with fibrosis), as assessed by biochemical methods (e.g., ALT levels).^1 ^1Santhekadur P K, Kumar D P, Sanyal AszJ. Preclinical models of non-alcoholic fatty liver disease. J Hepatol. 2018 February; 68(2):230-237; 2) Clapper J R. Hendricks M D, Gu G. at al. Diet-Induced mouse model of fatty liver disease and nonalcoholic steatohepatitis reflecting clinical disease progression and methods of assessment. Am J Physiol Gastrointest Liver Physiol 305: G483-G495. 2013.
After 9 weeks diet-induction, HFD-NASH mice were randomized into different groups by body weight. Body weight and diet were measured every day. At termination, blood was collected by cardiac puncture after animal's euthanasia by CO2. Liver were harvested and weighted. Right medial and/or left lateral lobes of the liver were excised. One part of liver was frozen for liver triglyceride measurement. One part was frozen for protein, RNA level qualification, like collagen 1 alpha 1 (Col1a1). One part was paraffin embedded. Hematoxylin and eosin (H&E) were used for morphological analysis. Picrosirius red stains was used for assessment of hepatic fibrosis. Histopathological analysis was performed by a pathologist blinded to the study. The remaining liver tissue was kept at −80° C. till analysis. Plasma levels of ALT, AST, TG, and total cholesterol (TC) were measured by bioanalyzer or kits.
Oral glucose tolerance test (OGTT) was performed at day 30 and was a test to diagnose type 2 diabetes (FIG. 4B).
Homeostatic Model Assessment of Insulin Resistance (HOMA-IR) is a calculation marker for insulin resistance which was calculated by formula: Glucose (mM)×Insulin […]/22.5 (FIG. 4C). *P<0.05, […] vs vehicle group by student t test.

[4] = all 3 doses (0.6, 1.2, 2.4 mg/kg), about 11 weeks

CC[C@H](C)[C@H](NC(=O)[C@H](Cc1ccccc1)NC(=O)[C@H](CCC(=O)O)NC(=O)[C@H](CCCCN)NC(=O)[C@H](C)NC(=O)[C@H](C)NC(=O)[C@H](CCC(N)=O)NC(=O)CNC(=O)[C@H](CCC(=O)O)NC(=O)[C@H](CC(C)C)NC(=O)[C@H](Cc1ccc(O)cc1)NC(=O)[C@H](CO)NC(=O)[C@H](CO)NC(=O)[C@@H](NC(=O)[C@H](CC(=O)O)NC(=O)[C@H](CO)NC(=O)[C@@H](NC(=O)[C@H](Cc1ccccc1)NC(=O)[C@@H](NC(=O)CNC(=O)[C@H](CCC(=O)O)NC(=O)[C@H](C)NC(=O)[C@@H](N)Cc1cnc[nH]1)[C@@H](C)O)[C@@H](C)O)C(C)C)C(=O)N[C@@H](C)C(=O)N[C@@H](Cc1c[nH]c2ccccc12)C(=O)N[C@@H](CC(C)C)C(=O)N[C@H](C(=O)N[C@@H](CCCCN)C(=O)NCC(=O)N[C@@H](CCCNC(=N)N)C(=O)O)C(C)C [Beinaglutide]
difference of pharmacokinetics between C57BL/6J mice and HFD-NASH mice [1]: No significant difference
liver fibrosis scores (H&E staining) ([2]; 0.6 mg/kg and 2.4 mg/kg, 11 weeks, vs control group, FIGS. 20A-20C): significantly (P<0.05) decreased
animal counts with severe pathological changes (steatosis, steatosis location, interlobular inflammation, liver fibrosis scores, liver fibrosis pattern) ([2]; 0.6 mg/kg or 2.4 mg/kg, about 11 weeks): decreased
percentage of body weight changes from baselines ([2]; 0.6 mg/kg t.i.d. s.c., first of three values given 'respectively'): −10.32%
liver TG contents ([2]; 1.2 mg/kg and 2.4 mg/kg, 11 weeks, FIG. 18B): dramatically decreased
plasma ALT level ([2]; 1.2 mg/kg and 2.4 mg/kg, after 6 weeks of treatment): significantly decreased
serum ALT ([2]; 1.2 mg/kg and 2.4 mg/kg, after 11 weeks of treatment, vs control group, FIG. 17A): significantly (P<0.05, or P<0.01) decreased
serum TC levels ([2]; 1.2 mg/kg and 2.4 mg/kg, after 11 weeks of treatment, vs control group, FIG. 17E): significantly (P<0.05, or P<0.01) decreased
serum AST level ([2]; 1.2 mg/kg and 2.4 mg/kg, after 11 weeks, P>0.05, FIG. 17B): appeared to have decreased
percentage of body weight changes from baselines ([2]; 1.2 mg/kg t.i.d. s.c., second of three values given 'respectively'): −10.12%
percentage of body weight changes from baselines ([2]; 2.4 mg/kg t.i.d. s.c., third of three values given 'respectively'): −10.74%
area of liver macrovesicular steatosis (H&E staining) ([2]; 2.4 mg/kg, 11 weeks, vs control group, FIG. 23B): significantly decreased
number of animals with significant fibrosis severity (liver fibrosis pattern scoring) ([2]; 2.4 mg/kg, 11 weeks, FIG. 21C): reduced
animal number with severe pathology for steatosis, steatosis location, interlobular inflammation ([2]; 2.4 mg/kg, 11 weeks, FIGS. 24A-24E): decreased
body weight increase ([2]; Beinaglutide treatment groups (0.6, 1.2, 2.4 mg/kg t.i.d. s.c.), 11 weeks, vs control group, FIGS. 13A-13D): significantly reduced
8-hour average food consumption ([2]; Beinaglutide treatment groups (0.6, 1.2, 2.4 mg/kg), last 3 measurements (Day 68, 71, 75), vs control group, FIG. 14): significantly reduced
plasma ALT level ([2]; Beinaglutide treatment groups vs control group, after 9 weeks treatment): no significant difference
serum TG levels ([2]; Beinaglutide treatment groups, 11 weeks, P>0.05, FIG. 17D): no significant effect
liver TC content ([2]; Beinaglutide treatment groups, 11 weeks, vs control group, FIG. 18A): No statistically significant effect
serum TBIL ([2]; Beinaglutide treatment groups, 11 weeks, FIG. 17C): no significant effect
liver inflammation score [2, 4]: appeared to have decreased
serum AST level [2, 4]: appeared to have decreased
α-SMA positive areas (IHC staining) ([2]; all Beinaglutide treatment groups, 11 weeks, FIGS. 22A-22B): decreased
relative mRNA expression level of Col1a1 in liver (qRT-PCR) ([2]; each Beinaglutide dose group, 11 weeks, vs control group, FIG. 19A): significantly decreased
Tgfb1 gene expression level in liver (qRT-PCR) ([2]; each Beinaglutide dose group, 11 weeks, vs control group, FIG. 19B): no statistically significant differences
Acta2 gene expression level in liver (qRT-PCR) ([2]; each Beinaglutide dose group, 11 weeks, vs control group, FIG. 19C): no statistically significant differences
serum LDL-c level ([2]; each Beinaglutide treatment group (0.6, 1.2, 2.4 mg/kg), 11 weeks, vs control group, FIG. 17F): significant (P<0.05, P<0.01, or even P<0.001) decrease
percentage of Sirius red staining positive area ([2]; each Beinaglutide treatment group, 11 weeks, vs control group, FIGS. 21A-21C): appeared to have decreased
liver weight ([2]; every Beinaglutide treatment group (0.6, 1.2, 2.4 mg/kg), 11 weeks, vs control group, FIG. 15A): significantly decreased
liver index ([2]; every Beinaglutide treatment group (0.6, 1.2, 2.4 mg/kg), 11 weeks, vs control group, FIG. 15B): significantly decreased
NAS score ([2]; every Beinaglutide treatment group, 11 weeks, FIG. 23A): appeared to have decreased
Body weight ([3]; 2.4 mg/kg s.c. three times per day, 4 weeks, vs control group, FIG. 4A): lower body weight
liver weight ([3]; 2.4 mg/kg s.c. three times per day, 4 weeks, vs vehicle, FIG. 2A): significantly reduced
liver triglyceride (TG) content ([3]; 2.4 mg/kg s.c. three times per day, 4 weeks, vs vehicle, FIG. 2B): significantly reduced
plasma alanine aminotransferase (ALT) ([3]; 2.4 mg/kg s.c. three times per day, 4 weeks, vs vehicle, FIG. 2C): significantly reduced
plasma aspartate aminotransferase (AST) ([3]; 2.4 mg/kg s.c. three times per day, 4 weeks, vs vehicle, FIG. 2D): significantly reduced
macrovesicular and microvesicular steatosis (H&E-stained liver sections) ([3]; 2.4 mg/kg s.c. three times per day, 4 weeks, vs vehicle, FIG. 2E): significantly reduced
Plasma TNF-α level ([3]; 2.4 mg/kg s.c. three times per day, 4 weeks, vs vehicle, FIG. 3A): significantly reduced
Plasma IL-6 level ([3]; 2.4 mg/kg s.c. three times per day, 4 weeks, vs vehicle, FIG. 3B): significantly reduced
Hepatic fibrosis (picrosirius red stained liver sections) ([3]; 2.4 mg/kg s.c. three times per day, 4 weeks, vs vehicle, FIG. 3E): significantly reduced
Protein level of liver collagen 1 alpha 1 (western blotting, densitometry normalized to actin) ([3]; 2.4 mg/kg s.c. three times per day, 4 weeks, vs vehicle, FIGS. 3C-3D): significantly lower
blood glucose in the oral glucose tolerance test (OGTT) ([3]; 2.4 mg/kg, OGTT at day 30, vs control group, FIG. 4B): lower blood glucose
HOMA-IR (insulin resistance) ([3]; 2.4 mg/kg, vs control group, FIG. 4C): lower insulin resistance
